Measured values reported in patent publication US9249125B2, “Pyrazole derivatives as p38 MAP inhibitors” (RESPIVERT LIMITED, priority 2012, dated 2016).

Legend:
d-U937 cells = assay: Cell viability: MTT assay; format: cell-based, human; settings: 1 μg/mL
How it was run: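 MTT read-out (1 h, absorbance 550 nm) on d-U937 cells after pre-incubation with 1 or 10 μg/mL compound under two regimes: 4 h, 5% FCS, or 24 h, 10% FCS RPMI1640. Values are percent loss of viability relative to vehicle (0.5% DMSO), so increases are reported as negative.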

RSV A2 = assay: RSV induced F-protein expression in primary bronchial epithelial cells; format: cell-based, respiratory syncytical virus; settings: for RSV induced F-protein in HBECs % Inhibition Observed: screened at concentrations up to 0.04 μg/mL
Procedure: Normal human bronchial epithelial cells (NHBEC) grown in 96 well plates are infected with RSV A2 (Strain A2, HPA, Salisbury, UK) at an MOI of 0.001 in the LHC8 Media:RPMI-1640 (50:50) containing 15 mM magnesium chloride and incubated for 1 hr at 37° C. for adsorption. The cells are then washed with PBS (3×200 μL), fresh media (200 μL) is added and incubation continued for 4 days. Where appropriate, cells are pre-incubated with the compound or DMSO for 2 hr, and then added again after washout of the virus.
The cells are fixed with 4% formaldehyde in PBS solution (50 μL) for 20 min, washed with WB (3×200 μL), (washing buffer, PBS including 0.5% BSA and 0.05% Tween-20) and incubated with blocking solution (5% condensed milk in PBS) for 1 hr. Cells are then washed with WB (3×200 μL) and incubated for 1 hr at RT with anti-RSV (2F7) F-fusion protein antibody (40 μL) (mouse monoclonal, lot 798760, Cat. No. ab43812, Abcam) in 5% BSA in PBS-tween. After washing, cells are incubated with an HRP-conjugated secondary antibody solution (50 μL) in 5% BSA in PBS-Tween (lot 00053170, Cat. No. P0447, Dako) and then TMB substrate (50 μL) (substrate reagent pack, lot 269472, Cat. No. DY999, R&D Systems, Inc.) was added. This reaction is stopped by the addition of 2N H2SO4 (50 μL) and the resultant signal is determined colorimetrically (OD: 450 nm with a reference wavelength of 655 nm) in a microplate reader (Varioskan® Flash, ThermoFisher Scientific).
Cells are then washed and a 2.5% crystal violet solution (50 μL) (lot 8656, Cat. No. PL7000, Pro-Lab Diagnostics) is applied for 30 min. After washing with WB, 1% SDS in distilled water (100 μL) is added to each well, and plates are shaken lightly on the shaker for 1 hr prior to reading the absorbance at 595 nm. The measured OD450-655 readings are corrected to the cell number by dividing the OD450-655 by the OD595 readings. The percentage inhibition for each well is calculated and the IC50 value is calculated from the concentration-response curve generated from the serial dilutions of compound.

cSrc = cSrc (Homo sapiens (Human), UniProt P12931); assay: c-Src enzyme inhibition (FRET, Z-LYTE); format: biochemical
Sequence of cSrc (P12931 whole entry, looked up): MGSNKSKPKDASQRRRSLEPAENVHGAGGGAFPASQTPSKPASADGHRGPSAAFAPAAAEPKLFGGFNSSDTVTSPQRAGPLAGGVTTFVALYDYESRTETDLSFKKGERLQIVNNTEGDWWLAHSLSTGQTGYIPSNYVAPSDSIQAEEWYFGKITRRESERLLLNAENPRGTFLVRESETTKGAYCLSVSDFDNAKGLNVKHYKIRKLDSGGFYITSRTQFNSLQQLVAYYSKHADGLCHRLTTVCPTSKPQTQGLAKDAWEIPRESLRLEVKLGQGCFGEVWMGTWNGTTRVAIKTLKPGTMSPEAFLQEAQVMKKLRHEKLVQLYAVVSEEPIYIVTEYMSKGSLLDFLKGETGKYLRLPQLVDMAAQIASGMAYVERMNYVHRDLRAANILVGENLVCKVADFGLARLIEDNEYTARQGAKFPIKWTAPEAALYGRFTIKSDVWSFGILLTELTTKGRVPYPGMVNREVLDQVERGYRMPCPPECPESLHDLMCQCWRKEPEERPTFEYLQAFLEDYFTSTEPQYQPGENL
How it was run: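 Z-LYTE FRET kinase assay: enzyme (3000 or 2000 ng/mL stock, respectively) preincubated 2 h at RT with compound (4–0.004 μg/mL stocks), then FRET peptide plus ATP (800 μM stock for c-Src, 60 μM for Syk) added for 1 h. Protease development 1 h; phosphorylation from coumarin/fluorescein emission ratio.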

HRV16 = HRV16 induced CPE in MRC5 cells; format: cell-based, human rhinovirus; settings: for IC50: Human rhinovirus sp., HRV16, MRC5, read-out: HRV induced CPE in MRC5 Cells IC50
Procedure: The supernatants are aspirated, and then fresh media added followed by incubation for 4 days. Where appropriate, cells are pre-incubated with compound or DMSO for 2 hr, and the compounds and DMSO added again after washout of the virus.
Supernatants are aspirated and incubated with methylene blue solution (100 μL, 2% formaldehyde, 10% methanol and 0.175% Methylene Blue) for 2 hr at RT. […] The percentage inhibition for each well is calculated. The IC50 value is calculated from the concentration-response curve generated by the serial dilutions of the test compounds.

[1] = test system: LPS-induced airways neutrophilia in mice; assay: LPS-induced neutrophil accumulation in mice; format: in vivo; settings: Test Substance at 0.2 mg/mL, intra tracheal, dosed 8 hr pre-LPS challenge

Cc1ccc(-n2nc(C(C)(C)C)cc2NC(=O)Nc2ccc(Oc3ccnc(Nc4ccc5[nH]cnc5c4)n3)c3ccccc23)cc1 [Example 30, 1-(4-((2-((1H-benzo[d]imidazol-5-yl)amino)pyrimidin-4-yl)oxy)naphthalen-1-yl)-3-(3-(tert-butyl)-1-(p-tolyl)-1H-pyrazol-5-yl)urea]
MTT Assay Cell viability at time point in d-U937 cells 4 h (d-U937 cells): −ve (−ve and +ve indicate that the value is below and above respectively, the no significant effect threshold, defined as 30% inhibition at 1 μg/mL at the time point indicated.) | MTT Assay Cell viability at time point in d-U937 cells 24 h (d-U937 cells): −ve (−ve and +ve indicate that the value is below and above respectively, the no significant effect threshold, defined as 30% inhibition at 1 μg/mL at the time point indicated.) | RSV induced F-protein in HBECs % Inhibition Observed (RSV A2): 57% | IC50 (cSrc): 17 nM

Cc1ccc(-n2nc(C(C)(C)C)cc2NC(=O)Nc2ccc(Oc3ccnc(Nc4ccc5c(ccn5C)c4)n3)c3ccccc23)cc1 [Example 18, 1-(3-(tert-butyl)-1-(p-tolyl)-1H-pyrazol-5-yl)-3-(4-((2-((1-methyl-1H-indol-5-yl)amino)pyrimidin-4-yl)oxy)naphthalen-1-yl)urea]
MTT Assay Cell viability at time point in d-U937 cells 4 h (d-U937 cells): −ve (−ve and +ve indicate that the value is below and above respectively, the no significant effect threshold, defined as 30% inhibition at 1 μg/mL at the time point indicated.) | MTT Assay Cell viability at time point in d-U937 cells 24 h (d-U937 cells): −ve (−ve and +ve indicate that the value is below and above respectively, the no significant effect threshold, defined as 30% inhibition at 1 μg/mL at the time point indicated.) | RSV induced F-protein in HBECs % Inhibition Observed (RSV A2): 56% | IC50 (cSrc): 155 nM

Cc1ccc(-n2nc(C(C)(C)C)cc2NC(=O)Nc2ccc(Oc3cc(Nc4ccc5[nH]ncc5c4)ncn3)c3ccccc23)cc1 [Example 23, 1-(4-((6-((1H-indazol-5-yl)amino)pyrimidin-4-yl)oxy)naphthalen-1-yl)-3-(3-(tert-butyl)-1-(p-tolyl)-1H-pyrazol-5-yl)urea]
MTT Assay Cell viability at time point in d-U937 cells 4 h (d-U937 cells): −ve (−ve and +ve indicate that the value is below and above respectively, the no significant effect threshold, defined as 30% inhibition at 1 μg/mL at the time point indicated.) | MTT Assay Cell viability at time point in d-U937 cells 24 h (d-U937 cells): −ve (−ve and +ve indicate that the value is below and above respectively, the no significant effect threshold, defined as 30% inhibition at 1 μg/mL at the time point indicated.) | IC50 (cSrc): 16 nM | IC50 (HRV16): 3 nM

Cc1cc(Nc2nccc(Oc3ccc(NC(=O)Nc4cc(C(C)(C)C)nn4-c4ccc(=O)n(CCN5CCOCC5)c4)c4ccccc34)n2)cc2cn[nH]c12 [Example 89, 1-(3-(tert-butyl)-1-(1-(2-morpholinoethyl)-6-oxo-1,6-dihydropyridin-3-yl)-1H-pyrazol-5-yl)-3-(4-((2-((7-methyl-1H-indazol-5-yl)amino)pyrimidin-4-yl)oxy)naphthalen-1-yl)urea]
MTT Assay Cell viability at time point in d-U937 cells 4 h (d-U937 cells): −ve (−ve and +ve indicate that the value is below and above respectively, the no significant effect threshold, defined as 30% inhibition at 1 μg/mL at the time point indicated.) | MTT Assay Cell viability at time point in d-U937 cells 24 h (d-U937 cells): +ve (−ve and +ve indicate that the value is below and above respectively, the no significant effect threshold, defined as 30% inhibition at 1 μg/mL at the time point indicated.) | IC50 (cSrc): < 1 nM | IC50 (HRV16): 9.6 nM

COc1ccc(-n2nc(C(C)(C)C)cc2NC(=O)Nc2ccc(Oc3ccnc(Nc4ccc5[nH]ncc5c4)n3)c3ccccc23)cc1 [Example 40, 1-(4-((2-((1H-indazol-5-yl)amino)pyrimidin-4-yl)oxy)naphthalen-1-yl)-3-(3-(tert-butyl)-1-(4-methoxyphenyl)-1H-pyrazol-5-yl)urea]
MTT Assay Cell viability at time point in d-U937 cells 4 h (d-U937 cells): −ve (−ve and +ve indicate that the value is below and above respectively, the no significant effect threshold, defined as 30% inhibition at 1 μg/mL at the time point indicated.) | MTT Assay Cell viability at time point in d-U937 cells 24 h (d-U937 cells): −ve (−ve and +ve indicate that the value is below and above respectively, the no significant effect threshold, defined as 30% inhibition at 1 μg/mL at the time point indicated.) | IC50 (RSV A2; human respiratory syncytial virus, Primary bronchial epithelial cell, read-out: RSV induced F-protein in HBECs IC50): 4.8 nM | IC50 (cSrc): 8 nM

CC(C)(C)c1cc(NC(=O)Nc2ccc(Oc3ccnc(Nc4ccc5[nH]ncc5c4)n3)c3ccccc23)n(-c2ccc(OCCN3CCOCC3)cc2)n1 [Example 12, 1-(4-((2-((1H-Indazol-5-yl)amino)pyrimidin-4-yl)oxy)naphthalen-1-yl)-3-(3-(tert-butyl)-1-(4-(2-morpholinoethoxy)phenyl)-1H-pyrazol-5-yl)urea]
% Inhibition of neutrophil accumulation in BAL [1]: 46% | Neutrophil numbers in BAL (+/−SEM) [1]: 7.6 ± 1.5 ×10^5/mL | MTT Assay Cell viability at time point in d-U937 cells 4 h (d-U937 cells): −ve (−ve and +ve indicate that the value is below and above respectively, the no significant effect threshold, defined as 30% inhibition at 1 μg/mL at the time point indicated.) | MTT Assay Cell viability at time point in d-U937 cells 24 h (d-U937 cells): −ve (−ve and +ve indicate that the value is below and above respectively, the no significant effect threshold, defined as 30% inhibition at 1 μg/mL at the time point indicated.) | IC50 (cSrc): 13 nM | HRV induced CPE in MRC5 Cells % Inhibition Observed (HRV16; MRC5 cells, screened at concentrations up to 0.32 ng/mL): 92%

Cc1ccc(-n2nc(C(C)(C)C)cc2NC(=O)Nc2ccc(Oc3ccnc(Nc4cccc5cc[nH]c45)n3)c3ccccc23)cc1 [Example 17]
MTT Assay Cell viability at time point in d-U937 cells 4 h (d-U937 cells): −ve (−ve and +ve indicate that the value is below and above respectively, the no significant effect threshold, defined as 30% inhibition at 1 μg/mL at the time point indicated.) | MTT Assay Cell viability at time point in d-U937 cells 24 h (d-U937 cells): −ve (−ve and +ve indicate that the value is below and above respectively, the no significant effect threshold, defined as 30% inhibition at 1 μg/mL at the time point indicated.) | RSV induced F-protein in HBECs % Inhibition Observed (RSV A2): 65% | IC50 (cSrc): 138 nM

Cc1cc(Nc2nccc(Oc3ccc(NC(=O)Nc4cc(C(C)(C)C)nn4-c4cccc(OCCN5CCOCC5)c4)c4ccccc34)n2)cc2cn[nH]c12 [Example 56, 1-(3-(tert-butyl)-1-(3-(2-morpholinoethoxy)phenyl)-1H-pyrazol-5-yl)-3-(4-((2-((7-methyl-1H-indazol-5-yl)amino)pyrimidin-4-yl)oxy)naphthalen-1-yl)urea]
% Inhibition of neutrophil accumulation in BAL [1]: 38% | Neutrophil numbers in BAL (+/−SEM) [1]: 10.2 ± 1.9 ×10^5/mL | MTT Assay Cell viability at time point in d-U937 cells 4 h (d-U937 cells): −ve (−ve and +ve indicate that the value is below and above respectively, the no significant effect threshold, defined as 30% inhibition at 1 μg/mL at the time point indicated.) | MTT Assay Cell viability at time point in d-U937 cells 24 h (d-U937 cells): +ve (−ve and +ve indicate that the value is below and above respectively, the no significant effect threshold, defined as 30% inhibition at 1 μg/mL at the time point indicated.) | IC50 (cSrc): 2 nM | IC50 (HRV16): 6.7 nM
